According to PubChem BioAssay (NCI):
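The compound was tested at five concentrations on cells cultured in 96-well plates, with a 48-hour exposure period. At the TGI there is no net growth.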

Key:
Assay in all cases: NCI-60 cell line screen, 48 h
U251 CNS = test system: U251 CNS
HOP-18 NSCLC = test system: HOP-18 NSCLC
DMS 114 small cell lung = test system: DMS 114 small cell lung
SNB-78 CNS = test system: SNB-78 CNS
DMS 273 small cell lung = test system: DMS 273 small cell lung
MCF7 breast = test system: MCF7 breast
MDA-MB-231 breast = test system: MDA-MB-231 breast
HS 578T breast = test system: HS 578T breast
BT-549 breast = test system: BT-549 breast
DU-145 prostate = test system: DU-145 prostate

SMILES | TGI (U251 CNS) [µM] | TGI (HOP-18 NSCLC) [µM] | TGI (DMS 114 small cell lung) [µM] | TGI (SNB-78 CNS) [µM] | TGI (DMS 273 small cell lung) [µM] | TGI (MCF7 breast) [µM] | TGI (MDA-MB-231 breast) [µM] | TGI (HS 578T breast) [µM] | TGI (BT-549 breast) [µM] | TGI (DU-145 prostate) [µM]
CCOC(=O)C(=O)Nc1ccccc1CC | > 100 | > 100 | > 100 |  |  |  |  |  |  | 
CN(C)CCC1(C2=CCCC2)CC/C(=C\c2ccc(Cl)cc2)C1=O (stereo not drawn) | 21.8 | 24.8 | 21.8 | 26.9 | 24.8 |  |  |  |  | 
O=C1C2C3C=C4c5ccccc5N(c5ccccc5)C4(C2C(=O)N1c1ccc([N+](=O)[O-])cc1)[C@H]1C(=O)N(c2ccc([N+](=O)[O-])cc2)C(=O)[C@@H]31 (stereo partly drawn) | > 100 | > 100 | > 100 | > 100 | > 100 |  |  |  |  | 
c1ccc(C2N3CCCCC3[C@@H]3c4[nH]c5ccccc5c4CCN23)nc1 (stereo partly drawn) | > 100 | > 100 | 96.3 | > 100 | > 100 |  |  |  |  | 
Cc1cc(N(CCC#N)CCC#N)ccc1/C=C(\NC(=O)/C=C/c1ccccc1)C(N)=O | > 100 |  | > 100 | > 100 | > 100 |  |  |  |  | 
CN(Cc1ccccc1)C(=O)c1ccccc1C(=O)O | > 100 |  | > 100 |  | > 100 |  |  |  |  | 
O=C1c2ccccc2C(=O)C1(O)c1c[nH]c2ccccc12 | > 100 |  | > 100 | > 100 |  |  |  |  |  | 
CC1=[N+]([O-])c2ccccc2C(=O)C1=O | > 100 | > 100 | > 100 | > 100 | > 100 |  |  |  |  | 
COc1ccc(C2=C(Cl)c3cc(OC)c(OC)cc3C2Cl)cc1 (stereo not drawn) | 26.6 | 53.5 | 31.8 | 49.3 | 39.5 | 22.8 | 36.6 | 76.5 | 15.6 | 45.4
Cc1[nH]c(=O)nc2[nH][nH]c(=O)c12 | > 100 | > 100 | > 100 |  |  |  |  |  |  | 
COC(=O)C(CC(=O)Nc1ccc(C)cc1)C(=O)C(=O)Nc1c(C(C)C)cccc1C(C)C (stereo not drawn) | > 100 |  | > 100 | > 100 |  |  |  |  |  | 
CCOC(=O)CCC(=O)C1c2cccc(O)c2C(=O)c2c(O)cc(C)cc21 (stereo not drawn) | 0.65 | 1.33 | 0.8 | 1.9 | 2.13 |  |  |  |  | 
COc1cc(/C=C/c2ccc(OC)c(O)c2)cc(OC)c1 | 15 |  | 17.9 | 44.4 | 34.1 |  |  |  |  | 
CCCC1=C(CC)C(C(=O)Nc2c(C)cccc2C)=NC(S)N1 (stereo not drawn) | > 100 | > 100 | > 100 | > 100 | > 100 |  |  |  |  | 
COc1cc2[nH]c3c(c2cc1OC)CCN[C@]31CC[C@]2(CC3c4c(cc(OC)c(O)c42)CCN3C)C[C@H]1OC (stereo partly drawn) | 36 | 46.7 | 31.4 | 60.4 | 4.46 |  |  |  |  | 
CC(=O)O[C@H]1CCC2[C@@H]3CC[C@]4(C)CC(=O)C=C[C@]4(C)C3CC[C@@]21C (stereo partly drawn) | 33.1 | > 53.7 | 24.2 | 22.3 | 31.7 |  | 77.9 |  | 32.1 | > 100
CNC(=S)/N=C(\N)N(C)C | > 100 | > 100 | > 100 | > 100 | > 100 |  |  |  |  | 
O=C(/C=C/c1ccc(Cl)c(Cl)c1)c1ccc2ccccc2c1 | > 100 | > 100 | > 100 | > 100 | > 100 |  |  |  |  | 
COc1ccc2c3c([nH]c2c1[N+](=O)[O-])C(C)N(C)CC3 (stereo not drawn) | > 100 | 84.9 | > 100 | > 100 | > 100 |  |  |  |  | 
CC1=CC(C)(C)N=C2SC(c3ccc(N)cc3)=NN12 | > 100 | > 100 | > 100 | > 100 | > 61.2 |  |  |  |  | 
CCCCCCCCCCCCCCCC(=O)OCC(C[As](=O)(O)O)OC(=O)CCCCCCCCCCCCCCC (stereo not drawn) | > 100 | > 100 | > 100 | 80.8 | > 100 | > 100 | > 100 | > 100 | > 100 | 
O=C(O)CNS(=O)(=O)c1ccc(NC(=O)c2ccc([N+](=O)[O-])cc2)cc1 | > 100 | > 100 |  |  | > 100 |  |  |  |  | 
COc1ccc(CN2CC(C)(C)C2=O)c(OC)c1 | > 100 | > 100 | > 100 | > 100 | > 100 |  |  |  |  | 
